Assay results reported in patent US20030078272A1, “Methods of use of fluoroquinolone compounds against ciprofloxacin-resistant and ciprofloxacin-sensitive pathogenic bacteria” (SmithKline Beecham Corporation, priority 1999, published 2003).
In brackets after ≈: the same amount, converted by molar mass. Like-named read-outs stand apart in the source and are kept apart here.

Key:
Assay type in all cases: cell-based, Streptococcus pneumoniae
pneumococci [1] = assay: Agar dilution MICs; conditions: for MIC50 / MIC90: Streptococcus pneumoniae
Description: (§1) Cultures were maintained at −70° C. in double-strength skim milk (Difco Laboratories, Detroit, Mich.). Gemifloxacin susceptibility powder, disks and E-tests (AB Biodisk, Solna, Sweden) were obtained from SmithKline Beecham Laboratories, Collegeville, Pa., USA.
(§2) These were performed (Jacobs, et al., Clin. Infect. Dis. 15:119-127, 1992 and Clark, et al., J. Clin. Microbiol. 36:3579-3584, 1998) on Mueller-Hinton agar supplemented with 5% sheep blood, incorporating compounds at concentrations from 0.002-8 μg/ml in doubling dilutions. Inocula were prepared by suspending growth from overnight cultures in Mueller-Hinton broth to a turbidity of a 0.5 McFarland standard. Final inocula contained 10^4 organisms/spot. Plates were inoculated with a Steers replicator with 3 mm inoculating pins, and incubated overnight at 35° C. in ambient air. The lowest concentration of antibiotic showing no growth was read as the MIC. Quality control strains—Staphylococcus aureus […] and Streptococcus pneumoniae ATCC 49619—were included in each run.

pneumococci [2] = assay: Microdilution MICs (NCCLS); conditions: microdilution (air), 200 strains
Description: (§3) Cultures were maintained at −70° C. in double-strength skim milk (Difco Laboratories, Detroit, Mich.). Gemifloxacin susceptibility powder, disks and E-tests (AB Biodisk, Solna, Sweden) were obtained from SmithKline Beecham Laboratories, Collegeville, Pa., USA. These were determined by the method recommended by the NCCLS, (Methods for Dilution Antimicrobial Susceptibility Tests for Bacteria that Grow Aerobically, 4th Edition, NCCLS, Villanova, Pa., 1997) using cation-adjusted Mueller-Hinton broth (Difco Laboratories) supplemented with 5% lysed defibrinated horse blood. Trays were prepared in-house. Suspensions with a turbidity equivalent to that of a 0.5 McFarland standard were prepared by suspending growth from blood agar plates in 2 ml Mueller-Hinton broth. Suspensions were further diluted 1:10 to obtain a final inoculum (10 μL) containing 5×10^5 CFU/mL. Trays were incubated 20-24 hours in ambient air at 35° C. Standard quality control strains (as above) were included in each run.

pneumococci [3] = assay: E-test MICs; conditions: 200 strains
Description: (§4) Cultures were maintained at −70° C. in double-strength skim milk (Difco Laboratories, Detroit, Mich.). Gemifloxacin susceptibility powder, disks and E-tests (AB Biodisk, Solna, Sweden) were obtained from SmithKline Beecham Laboratories, Collegeville, Pa., USA. Standard methodology was used (Clark, et al., J. Clin. Microbiol. 36:3579-3584, 1998). Mueller-Hinton plates supplemented with 5% sheep blood (BBL Microbiology Systems, Cockeysville, Md., USA) were inoculated with a 0.5 McFarland suspension harvested from plates, and E-test strips (AB Biodisk, Solna, Sweden) placed on each. After overnight incubation at 35° C., the MIC was read as the intersect where the ellipse of growth inhibition intersects the strip. E-test MICs were performed both in air and in CO2. E-test MICs were rounded up to the next highest doubling dilution.

pneumococci [4] = assay: Disk diffusion, 5 μg gemifloxacin disks; conditions: for zone of inhibition at 5 µg/disc: Streptococcus pneumoniae, 5 μg disk, read-out: zone diameter
Description: as §1
This was by standard NCCLS methodology (Performance Standards for Antimicrobial Disk Susceptibility Tests, 6th Edition, NCCLS, Villanova, Pa., 1997) using 5 μg gemifloxacin disks (BBL) and Mueller-Hinton plates supplemented with 5% sheep blood (BBL), inoculated with a 0.5 McFarland suspension. After overnight incubation in both air and 5% CO2 at 35° C., zone diameters were measured with calipers.

pneumococci [5] = assay: MIC testing, all methods together (agar dilution, microdilution, E-test); conditions: agar dilution and microdilution in air, E-test in air and CO2, all strains
Description: as §2
as §3, with “These” for “Cultures were maintained at −70° C. in double-strength skim milk (Difco Laboratories, Detroit, Mich.). Gemifloxacin susceptibility powder, disks and E-tests (AB Biodisk, Solna, Sweden) were obtained from SmithKline Beecham Laboratories, Collegeville, Pa., USA. These”
as §4, with “Standard” for “Cultures were maintained at −70° C. in double-strength skim milk (Difco Laboratories, Detroit, Mich.). Gemifloxacin susceptibility powder, disks and E-tests (AB Biodisk, Solna, Sweden) were obtained from SmithKline Beecham Laboratories, Collegeville, Pa., USA. Standard”

[6] = agar dilution (air), all 200 strains
[7] = agar dilution, 39 ciprofloxacin-resistant strains (ciprofloxacin MIC ≧8.0 μg/ml)
[8] = agar dilution, 161 ciprofloxacin-susceptible strains (ciprofloxacin MIC ≦4.0 μg/ml)

MIC50 (pneumococci [1]; [6]): 0.03 µg/mL (≈ 0.077 µM) | MIC90 (pneumococci [1]; [6]): 0.25 µg/mL (≈ 0.642 µM) | MIC50 (pneumococci [1]; [7]): 0.25 µg/mL (≈ 0.642 µM) | MIC90 (pneumococci [1]; [7]): 0.5 µg/mL (≈ 1.28 µM) | MIC50 (pneumococci [1]; [8]): 0.03 µg/mL (≈ 0.077 µM) | MIC90 (pneumococci [1]; [8]): 0.03 µg/mL (≈ 0.077 µM) | MIC range (pneumococci [1]; [6]): 4 to 1000 ng/mL | MIC range (pneumococci [1]; agar dilution (air), all 200 strains, listed as gemifloxacin): 4 to 1000 ng/mL | MIC range (pneumococci [1]; [7]): 30 to 1000 ng/mL | MIC range (pneumococci [1]; agar dilution, 39 ciprofloxacin-resistant strains (ciprofloxacin MIC ≧8.0 μg/ml), listed as gemifloxacin): 30 to 1000 ng/mL | MIC range (pneumococci [1]; [8]): 4 to 60 ng/mL | MIC50 (pneumococci [2]; Streptococcus pneumoniae): 0.016 µg/mL (≈ 0.0411 µM) | MIC90 (pneumococci [2]; Streptococcus pneumoniae): 0.125 µg/mL (≈ 0.321 µM) | MIC range (pneumococci [2]): 4 to 500 ng/mL | MIC50 (pneumococci [3]; E-test (CO2)): 0.016 µg/mL (≈ 0.0411 µM) | MIC range (pneumococci [3]; E-test (CO2)): 8 to 500 ng/mL | MIC range (pneumococci [3]; E-test (CO2), listed as gemifloxacin): 0 to 500 ng/mL | MIC range (pneumococci [3]; E-test (air)): 8 to 500 ng/mL | MIC90 (pneumococci [3]; Streptococcus pneumoniae, E-test (CO2)): 0.25 µg/mL (≈ 0.642 µM) | MIC90 (pneumococci [3]; Streptococcus pneumoniae, E-test (air)): 0.125 µg/mL (≈ 0.321 µM) | MIC50 (pneumococci [3]; Streptococcus pneumoniae, E-test (air), read-out: MIC50): 0.016 µg/mL (≈ 0.0411 µM) | MIC50s, range over methods (pneumococci [5]): 0.016 to 0.03 µg/mL | MIC90s, range over methods (pneumococci [5]): 0.125 to 0.25 µg/mL | MIC range over all methods (pneumococci [5]): 4 to 1000 ng/mL
Compound: CO/N=C1\CN(c2nc3c(cc2F)c(=O)c(C(=O)O)cn3C2CC2)CC1CN (racemic) [Gemifloxacin, (R,S)-7-(3-aminomethyl-4-methoxyiminopyrrolidin-1-yl)-1-cyclopropyl-6-fluoro-4-oxo-1,4-dihydro-1,8-naphthyridine-3-carboxylic acid]
zone of inhibition at 5 µg/disc (pneumococci [4]; in CO2, ciprofloxacin-resistant strains, full range): 18 to 31 mm | zone of inhibition at 5 µg/disc (pneumococci [4]; in CO2, ciprofloxacin-resistant strains, most strains): 21 to 26 mm | zone of inhibition at 5 µg/disc (pneumococci [4]; in air, quinolone-resistant strains, most strains): < 31 mm | zone of inhibition at 5 µg/disc (pneumococci [4]; incubated in CO2, all ciprofloxacin-susceptible strains): ≥ 26 mm | zone of inhibition at 5 µg/disc (pneumococci [4]; incubated in air, quinolone-susceptible strains): ≥ 28 mm | zone diameter (pneumococci [4]; most quinolone-susceptible strains): > 25 mm | zone diameter in air wider than in CO2 (pneumococci [4]; most strains, air versus CO2): 1-3 mm
